Measurements from US9783527B2, “Indazole ureas and method of use” (AbbVie Inc., priority 2014, dated 2017).

Legend:
[1] = tested on: spinal nerve ligation-induced neuropathic pain in rats; assay: Rat spinal nerve ligation (SNL) model of neuropathic pain, von Frey paw withdrawal threshold; type: in vivo; settings: SNL dose 100 mg/kg; male Sprague Dawley rats, mechanical sensitivity (von Frey)
Text: Rat Spinal Nerve Ligation (SNL) Model of Neuropathic Pain.
A model of spinal nerve ligation-induced (SNL model) neuropathic pain as originally described by Kim and Chung (Kim, S. H. and J. M. Chung, 1992, Pain 50, 355) was used to test a compound of the present application. The male Sprague Dawley rats (Charles River Laboratories, Wilmington, Mass.), weighing 150-175 g at the time of surgery, were placed under isoflurane anesthesia and a 1.5 cm incision was made dorsal to the lumbosacral plexus. The paraspinal muscles (left side) were separated from the spinous processes, the left L5 and L6 spinal nerves isolated, and tightly ligated with 5-0 silk suture distal to the dorsal root ganglion. Care was taken to avoid ligating the L4 spinal nerve. Following spinal nerve ligation, a minimum of 7 days of recovery and no more than 3 weeks was allowed prior to the behavioral testing (mechanical sensitivity). Only rats with threshold scores ≦4.5 g were considered allodynic and utilized in pharmacological experiments.
Mechanical sensitivity was measured using calibrated von Frey filaments (Stoelting, Wood Dale, Ill.). Paw withdrawal threshold (PWT) was determined by using the Dixon's up-down method (Dixon, W. J., 1980, Ann. Rev. Pharmacol. Toxicol., 20, 441). Rats were placed into inverted individual plastic containers (20×12.5×20 cm) on top of a suspended wire mesh with a 1 cm^2 grid to provide access to the ventral side of the hind paws, and acclimated to the test chambers for 20 minutes. The von Frey filaments were presented perpendicularly to the plantar surface of the selected hind paw, and then held in this position for approximately 8 seconds with enough force to cause a slight bend in the filament. Positive responses included an abrupt withdrawal of the hind paw from the stimulus, or flinching behavior immediately following removal of the stimulus. A 50% withdrawal threshold was determined using an up-down procedure (Dixon, 1980). A percent maximal possible effect (% MPE) of testing compound was calculated according to the formula: (Log [compound-treated threshold]−Log [vehicle-treated threshold])/(Log [maximum threshold]−Log [vehicle-treated threshold])×100%, where the maximum threshold was equal to 15 g.
(§1) The animals were housed in Association for Assessment and Accreditation of Laboratory Animal Care (AAALAC) approved facilities at AbbVie Inc. in a temperature-regulated environment under a controlled 12-hour light-dark cycle, with lights on at 6:00 a.m. Food and water were available ad libitum at all times except during testing. All testing was done following procedures outlined in protocols approved by AbbVie Inc.s' Institutional Animal Care and Use Committee.

[2] = tested on: MIA-induced osteoarthritic pain in rats; assay: Osteoarthritic (OA) pain induced by sodium monoiodoacetate (MIA), hind limb grip force; type: in vivo, rat; settings: male Sprague Dawley rats, grip force 20 days after MIA injection
Experimental: Osteoarthritic (OA) Pain Induced by Sodium Monoiodoacetate (MIA)
Pain behavior was assessed by measurement of hind limb grip force (GF) in adult osteoarthritic rats. Male Sprague Dawley rats, obtained from Charles River Laboratories, (Wilmington, Mass.), weighing 150-175 g, were injected in the unilateral knee join with a single intra-articular injection of sodium monoiodoacetate (MIA, 3 mg/rat). All rats were tested at 20 days following MIA injection. A behavioral measure of activity-induced pain was carried out. Measurements of the peak hind limb grip force were conducted by recording the maximum compressive force (CFmax), in grams of force, exerted on a hind limb strain gauge setup, in a commercially available grip force measurement system (Columbus Instruments, Columbus, Ohio).
During testing, each rat was gently restrained by grasping it around its rib cage and then allowed to grasp the wire mesh frame attached to the strain gauge. The experimenter then moved the animal in a rostral-to-caudal direction until the grip was broken. Each rat was sequentially tested twice at an approximately 2-3 minute interval to obtain a raw mean grip force (CFmax). This raw mean grip force data was in turn converted to a maximum hindlimb cumulative compressive force (CFmax), as the grams of force/kg of body weight, for each animal.
For evaluating the compound effects, the hind limb grip force was conducted 20 days following the intra-articular injection of MIA. A group of age-matched nave (not injected with MIA) animals was added as a comparator to the drug-dosed groups. The vehicle control response for each group of MIA-treated animals was defined as the 0% response (0% effect), whereas the nave control group was defined as the normal response and as 100% effect. The % effect for each dose group was expressed as % return of response to normalcy, compared to the nave group. A percent maximal possible effect (% MPE) of testing compound was calculated according to the formula: (Treatment CFmax−Vehicle CFmax)/Vehicle CFmax]×100). Higher % effect numbers indicate increased relief from the pain in the model, with 100% indicating a return to the level of response seen in normal (non-osteoarthritic) animals. All experiments evaluating drug effects in this model were conducted in a randomized blinded fashion.
as §1, with “Inc.'s” for “Inc.s'”

[3] = biological target: human Nav1.7 (Homo sapiens (Human), UniProt Q15858); assay: FRET-based membrane potential assay, recombinant human sodium channel Nav1.7; type: cell-based; settings: HEK293 cells stably expressing recombinant human Nav1.7; depolarization with veratridine (EC80) + scorpion venom
human Nav1.7, sequence (Q15858 whole entry): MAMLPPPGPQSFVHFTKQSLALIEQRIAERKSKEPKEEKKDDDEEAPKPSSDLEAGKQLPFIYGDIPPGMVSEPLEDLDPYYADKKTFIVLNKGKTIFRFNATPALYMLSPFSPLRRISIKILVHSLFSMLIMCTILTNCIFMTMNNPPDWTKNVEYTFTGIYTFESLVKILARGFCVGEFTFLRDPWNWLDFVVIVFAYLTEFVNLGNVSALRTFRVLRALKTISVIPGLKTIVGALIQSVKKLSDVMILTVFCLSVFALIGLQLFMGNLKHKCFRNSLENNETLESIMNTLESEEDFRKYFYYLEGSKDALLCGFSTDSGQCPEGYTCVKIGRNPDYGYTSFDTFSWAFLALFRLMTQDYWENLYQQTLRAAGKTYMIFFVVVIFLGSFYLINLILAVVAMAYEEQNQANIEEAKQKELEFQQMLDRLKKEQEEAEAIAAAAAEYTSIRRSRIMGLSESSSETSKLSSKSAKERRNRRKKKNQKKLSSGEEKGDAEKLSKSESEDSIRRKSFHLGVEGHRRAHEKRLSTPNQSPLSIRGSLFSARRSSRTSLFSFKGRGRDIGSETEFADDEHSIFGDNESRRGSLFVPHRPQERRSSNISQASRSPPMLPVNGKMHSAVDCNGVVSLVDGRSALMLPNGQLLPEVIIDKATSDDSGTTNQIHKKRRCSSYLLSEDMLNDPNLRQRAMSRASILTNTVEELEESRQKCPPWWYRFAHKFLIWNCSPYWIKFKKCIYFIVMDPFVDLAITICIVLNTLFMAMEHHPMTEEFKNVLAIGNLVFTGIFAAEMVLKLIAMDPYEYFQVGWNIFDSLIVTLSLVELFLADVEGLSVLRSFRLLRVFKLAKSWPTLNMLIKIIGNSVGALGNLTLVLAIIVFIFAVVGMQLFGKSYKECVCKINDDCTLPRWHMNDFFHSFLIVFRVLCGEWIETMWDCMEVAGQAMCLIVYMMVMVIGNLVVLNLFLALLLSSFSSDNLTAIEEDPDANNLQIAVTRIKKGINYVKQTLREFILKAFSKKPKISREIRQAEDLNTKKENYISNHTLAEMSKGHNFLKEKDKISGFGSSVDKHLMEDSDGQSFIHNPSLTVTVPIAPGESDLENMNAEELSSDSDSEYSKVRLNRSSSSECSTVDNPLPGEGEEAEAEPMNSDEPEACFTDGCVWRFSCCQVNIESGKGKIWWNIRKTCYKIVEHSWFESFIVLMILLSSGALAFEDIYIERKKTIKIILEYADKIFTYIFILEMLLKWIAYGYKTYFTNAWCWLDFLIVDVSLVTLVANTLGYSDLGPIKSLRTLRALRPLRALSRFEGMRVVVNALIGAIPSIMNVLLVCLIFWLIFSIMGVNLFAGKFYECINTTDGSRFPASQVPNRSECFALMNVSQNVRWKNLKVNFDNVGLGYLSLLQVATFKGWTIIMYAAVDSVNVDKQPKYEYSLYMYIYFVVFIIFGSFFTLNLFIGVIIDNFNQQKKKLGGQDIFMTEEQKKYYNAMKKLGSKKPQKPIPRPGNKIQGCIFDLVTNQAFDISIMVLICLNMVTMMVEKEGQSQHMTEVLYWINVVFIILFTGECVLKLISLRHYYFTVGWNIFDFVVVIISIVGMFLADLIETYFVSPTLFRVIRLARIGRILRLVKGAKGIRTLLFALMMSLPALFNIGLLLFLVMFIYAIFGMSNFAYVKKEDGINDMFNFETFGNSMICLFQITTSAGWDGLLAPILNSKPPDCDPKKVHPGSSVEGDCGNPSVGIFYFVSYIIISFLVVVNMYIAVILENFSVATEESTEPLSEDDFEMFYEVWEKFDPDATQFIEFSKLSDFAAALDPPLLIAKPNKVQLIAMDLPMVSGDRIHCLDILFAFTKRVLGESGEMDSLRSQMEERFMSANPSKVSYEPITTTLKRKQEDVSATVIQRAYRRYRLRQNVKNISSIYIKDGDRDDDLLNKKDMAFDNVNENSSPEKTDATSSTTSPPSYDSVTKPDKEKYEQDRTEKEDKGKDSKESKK
How it was run: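 IC50 derived by four-parameter Hill fit of percent inhibition of depolarization, measured as peak F440-480/F565-625 ratio over baseline. Stable human Nav1.7 HEK293 cells, dye-loaded with CC2-DMPE and DiSBAC2(3)/VABSC-1 at room temperature, received compound 3 min ahead of veratridine (EC80) plus scorpion venom.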

[4] = biological target: human Nav1.8 (Homo sapiens (Human), UniProt Q9Y5Y9); assay: FRET-based membrane potential assay, recombinant human sodium channel Nav1.8; type: cell-based; settings: HEK293 cells stably expressing recombinant human Nav1.8; depolarization with veratridine (EC80) + scorpion venom
human Nav1.8, sequence (Q9Y5Y9 whole entry): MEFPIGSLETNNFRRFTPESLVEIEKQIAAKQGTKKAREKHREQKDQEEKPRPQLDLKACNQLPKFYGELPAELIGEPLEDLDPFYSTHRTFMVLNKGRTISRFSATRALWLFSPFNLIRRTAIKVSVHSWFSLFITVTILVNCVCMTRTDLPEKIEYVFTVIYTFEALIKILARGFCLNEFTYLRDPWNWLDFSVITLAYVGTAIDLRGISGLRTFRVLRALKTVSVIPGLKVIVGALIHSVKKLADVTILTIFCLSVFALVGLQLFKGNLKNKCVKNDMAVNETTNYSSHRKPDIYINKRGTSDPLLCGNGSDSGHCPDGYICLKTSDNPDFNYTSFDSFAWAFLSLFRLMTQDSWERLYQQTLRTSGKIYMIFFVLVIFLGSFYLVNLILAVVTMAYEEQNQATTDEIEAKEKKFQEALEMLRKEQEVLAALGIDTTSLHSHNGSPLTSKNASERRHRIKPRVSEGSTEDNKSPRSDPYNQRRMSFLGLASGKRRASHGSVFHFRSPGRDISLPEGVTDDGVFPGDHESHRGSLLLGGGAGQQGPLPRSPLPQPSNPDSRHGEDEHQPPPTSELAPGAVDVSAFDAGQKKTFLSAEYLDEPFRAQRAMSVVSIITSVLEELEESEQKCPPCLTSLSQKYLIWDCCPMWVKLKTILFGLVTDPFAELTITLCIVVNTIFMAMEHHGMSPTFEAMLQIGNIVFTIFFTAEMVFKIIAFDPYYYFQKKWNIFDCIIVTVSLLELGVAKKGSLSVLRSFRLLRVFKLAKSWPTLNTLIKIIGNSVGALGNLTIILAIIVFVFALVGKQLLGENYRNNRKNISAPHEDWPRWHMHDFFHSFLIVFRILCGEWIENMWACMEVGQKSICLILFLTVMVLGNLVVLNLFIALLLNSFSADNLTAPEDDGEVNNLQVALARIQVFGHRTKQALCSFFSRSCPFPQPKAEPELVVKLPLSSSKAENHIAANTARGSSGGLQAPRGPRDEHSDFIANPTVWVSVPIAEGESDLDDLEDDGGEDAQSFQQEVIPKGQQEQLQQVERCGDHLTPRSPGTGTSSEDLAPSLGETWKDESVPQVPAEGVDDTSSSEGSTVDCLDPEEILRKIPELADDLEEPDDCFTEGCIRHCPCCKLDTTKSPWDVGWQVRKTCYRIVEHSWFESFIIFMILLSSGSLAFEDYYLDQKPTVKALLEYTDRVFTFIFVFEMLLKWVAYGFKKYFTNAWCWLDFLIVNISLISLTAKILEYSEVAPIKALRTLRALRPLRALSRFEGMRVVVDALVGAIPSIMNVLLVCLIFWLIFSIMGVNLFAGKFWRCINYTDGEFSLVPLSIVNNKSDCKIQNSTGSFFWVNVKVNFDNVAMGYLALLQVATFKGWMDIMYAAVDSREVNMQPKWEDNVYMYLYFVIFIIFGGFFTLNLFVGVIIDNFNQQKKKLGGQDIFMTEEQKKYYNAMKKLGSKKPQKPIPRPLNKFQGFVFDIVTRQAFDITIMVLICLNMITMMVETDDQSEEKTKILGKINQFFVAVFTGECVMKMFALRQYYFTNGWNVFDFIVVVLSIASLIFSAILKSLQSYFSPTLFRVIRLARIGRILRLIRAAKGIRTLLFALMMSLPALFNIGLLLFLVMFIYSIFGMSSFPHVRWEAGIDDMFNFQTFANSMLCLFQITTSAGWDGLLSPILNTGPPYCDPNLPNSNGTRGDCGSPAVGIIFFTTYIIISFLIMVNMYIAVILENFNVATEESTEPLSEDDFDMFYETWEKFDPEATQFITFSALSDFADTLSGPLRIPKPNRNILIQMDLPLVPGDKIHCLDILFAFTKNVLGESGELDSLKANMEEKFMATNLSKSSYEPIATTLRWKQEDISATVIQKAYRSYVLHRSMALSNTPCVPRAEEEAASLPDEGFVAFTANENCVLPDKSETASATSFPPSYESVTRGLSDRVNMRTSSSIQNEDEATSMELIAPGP
How it was run: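 HEK293 cells stably expressing Nav1.8 were loaded with CC2-DMPE/DiSBAC2(3) FRET voltage dyes. Compounds were added 3 min before depolarization with EC80 veratridine plus scorpion venom. The F440-480/F565-625 ratio was read on FLIPR; IC50 came from four-parameter Hill fits.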

| Structure (SMILES) | SNL MPE (%) [1] [%] | OA MPE (%) ([2]; OA dose 30 mg/kg) | IC50 [3] [nM] | IC50 [4] [nM] | OA MPE (%) ([2]; OA dose 10 mg/kg) |
| --- | --- | --- | --- | --- | --- |
| CC(C)(C)OC(=O)N1CCN(c2cccc3c2cnn3-c2ccccc2F)C1=O [Example 2, tert-butyl 3-[1-(2-fluorophenyl)-1H-indazol-4-yl]-2-oxoimidazolidine-1-carboxylate] | 38 |  |  |  |  |
| O=C(CN1CCN(c2cccc3c2cnn3-c2ccccc2F)C1=O)N1CCCC1 [Example 1, 1-[1-(2-fluorophenyl)-1H-indazol-4-yl]-3-[2-oxo-2-(pyrrolidin-1-yl)ethyl]imidazolidin-2-one] | 52 | 55 |  |  |  |
| CC(C)OC(=O)N1CCN(c2cccc3c2cnn3-c2ccccc2F)C1=O [Example 4, isopropyl 3-[1-(2-fluorophenyl)-1H-indazol-4-yl]-2-oxoimidazolidine-1-carboxylate] | 68 |  | 223 | 230 |  |
| O=C(CN1CCN(c2cccc3c2cnn3-c2ccccc2F)C1=O)N1CC[C@H](F)C1 [Example 10, 1-[1-(2-fluorophenyl)-1H-indazol-4-yl]-3-{2-[(3S)-3-fluoropyrrolidin-1-yl]-2-oxoethyl}imidazolidin-2-one] | 0 | 91 |  |  |  |
| CC(C)CC(=O)CN1CCN(c2cccc3c2cnn3-c2ccccc2F)C1=O [Example 8, 1-[1-(2-fluorophenyl)-1H-indazol-4-yl]-3-(4-methyl-2-oxopentyl)imidazolidin-2-one] | 57 | 75 |  |  |  |
| NC(=O)CN1CCN(c2cccc3c2cnn3-c2ccccc2F)C1=O [Example 3, 2-{3-[1-(2-fluorophenyl)-1H-indazol-4-yl]-2-oxoimidazolidin-1-yl}acetamide] | 30 |  |  |  |  |
| O=C1N(Cc2cocn2)CCN1c1cccc2c1cnn2-c1ccccc1F [Example 26, 1-[1-(2-fluorophenyl)-1H-indazol-4-yl]-3-(1,3-oxazol-4-ylmethyl)imidazolidin-2-one] | 54 |  | 382 | 517 |  |
| O=C(CN1CCN(c2cccc3c2cnn3-c2ccccc2F)C1=O)N1CCC[C@@H](F)C1 [Example 53, 1-[1-(2-fluorophenyl)-1H-indazol-4-yl]-3-{2-[(3R)-3-fluoropiperidin-1-yl]-2-oxoethyl}imidazolidin-2-one] | 47 | 74 |  |  |  |
| O=C1N(Cc2ncco2)CCN1c1cccc2c1cnn2-c1ccccc1F [Example 31, 1-[1-(2-fluorophenyl)-1H-indazol-4-yl]-3-(1,3-oxazol-2-ylmethyl)imidazolidin-2-one] | 94 |  |  |  | 89 |
| O=C1N(Cc2ccccn2)CCN1c1cccc2c1cnn2-c1ccccc1F [Example 12, 1-[1-(2-fluorophenyl)-1H-indazol-4-yl]-3-(pyridin-2-ylmethyl)imidazolidin-2-one] | 25 |  | 1020 | 321 |  |
